Experimental data from PubChem BioAssay (NCI).
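Grown in 96-well plates, cells were treated for 48 hours with each compound at five concentrations. Insufficient inhibition: endpoint recorded as highest concentration tested. GI50 marks 50% less growth. TGI: total growth inhibition.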

Assays:
Assay in all cases: inhibition of tumour cell growth, NCI panel, 48 h
OVCAR-8 ovarian = test system: OVCAR-8 ovarian
HCT-15 colon = test system: HCT-15 colon
NCI-H23 lung = test system: NCI-H23 lung
SK-MEL-28 melanoma = test system: SK-MEL-28 melanoma
UACC-62 melanoma = test system: UACC-62 melanoma
MCF7 breast = test system: MCF7 breast
HCT-116 colon = test system: HCT-116 colon
SF-539 CNS = test system: SF-539 CNS
BT-549 breast = test system: BT-549 breast
IGROV1 ovarian = test system: IGROV1 ovarian
ACHN renal = test system: ACHN renal
UACC-257 melanoma = test system: UACC-257 melanoma
LOX IMVI melanoma = test system: LOX IMVI melanoma
NCI/ADR-RES ovarian = test system: NCI/ADR-RES ovarian
SF-268 CNS = test system: SF-268 CNS
COLO 205 colon = test system: COLO 205 colon
T-47D breast = test system: T-47D breast
RXF 393 renal = test system: RXF 393 renal
EKVX NSCLC = test system: EKVX NSCLC
MOLT-4 leukemia = test system: MOLT-4 leukemia
SK-MEL-5 melanoma = test system: SK-MEL-5 melanoma
SN12C renal = test system: SN12C renal
SF-295 CNS = test system: SF-295 CNS
HOP-62 NSCLC = test system: HOP-62 NSCLC
PC-3 prostate = test system: PC-3 prostate
MALME-3M melanoma = test system: MALME-3M melanoma
M14 melanoma = test system: M14 melanoma
HL-60(TB) leukemia = test system: HL-60(TB) leukemia
DU-145 prostate = test system: DU-145 prostate
NCI-H226 lung = test system: NCI-H226 lung
SNB-75 CNS = test system: SNB-75 CNS
SK-OV-3 ovarian = test system: SK-OV-3 ovarian
UO-31 renal = test system: UO-31 renal
NCI-H460 lung = test system: NCI-H460 lung
A498 renal = test system: A498 renal
HOP-92 NSCLC = test system: HOP-92 NSCLC
786-0 renal = test system: 786-0 renal
SR leukemia = test system: SR leukemia
MDA-MB-468 breast = test system: MDA-MB-468 breast
SK-MEL-2 melanoma = test system: SK-MEL-2 melanoma
HS 578T breast = test system: HS 578T breast
TK-10 renal = test system: TK-10 renal
MDA-MB-231 breast = test system: MDA-MB-231 breast
OVCAR-5 ovarian = test system: OVCAR-5 ovarian
KM12 colon = test system: KM12 colon
MDA-MB-435 = test system: MDA-MB-435
CAKI-1 renal = test system: CAKI-1 renal
SNB-19 CNS = test system: SNB-19 CNS
HT29 colon = test system: HT29 colon
A549 NSCLC = test system: A549 NSCLC
U251 CNS = test system: U251 CNS
SW-620 colon = test system: SW-620 colon
OVCAR-4 ovarian = test system: OVCAR-4 ovarian
OVCAR-3 ovarian = test system: OVCAR-3 ovarian
CCRF-CEM leukemia = test system: CCRF-CEM leukemia
HCC-2998 colon = test system: HCC-2998 colon
NCI-H522 lung = test system: NCI-H522 lung

`COc1cc2c3c(n(CCCNC(C)C)c(=O)c2cc1OC)-c1nc2c(cc1C3=O)OCO2` gave a GI50 (OVCAR-8 ovarian) of 5.28 µM, a TGI (OVCAR-8 ovarian) of 24.9 µM and a GI50 (HCT-15 colon) of 1.21 µM. The TGI (HCT-15 colon) was 2.61 µM, the GI50 (NCI-H23 lung) was 0.587 µM and the TGI (NCI-H23 lung) was 12.4 µM. For the same compound, the GI50 (SK-MEL-28 melanoma) was 4.94 µM, the TGI (SK-MEL-28 melanoma) was 18.2 µM and the GI50 (UACC-62 melanoma) was 9.84 µM. It also gave a TGI (UACC-62 melanoma) of 23.6 µM, a GI50 (MCF7 breast) of 0.101 µM and a TGI (MCF7 breast) of 3.07 µM. For the same compound, the GI50 (HCT-116 colon) was 1.04 µM, the TGI (HCT-116 colon) was 2.28 µM and the GI50 (SF-539 CNS) was 1.52 µM. The TGI (SF-539 CNS) was 7.26 µM, the GI50 (BT-549 breast) was 4.17 µM and the TGI (BT-549 breast) was 23.1 µM. For the same compound, the GI50 (IGROV1 ovarian) was 14.8 µM, the TGI (IGROV1 ovarian) was 30.7 µM and the GI50 (ACHN renal) was 1.5 µM. It also gave a TGI (ACHN renal) of 13.2 µM, a GI50 (UACC-257 melanoma) of 13.8 µM and a TGI (UACC-257 melanoma) of 29 µM. The GI50 (LOX IMVI melanoma) was 1.01 µM, the TGI (LOX IMVI melanoma) was 2.21 µM and the GI50 (NCI/ADR-RES ovarian) was 1.52 µM. For the same compound, the TGI (NCI/ADR-RES ovarian) was 3.25 µM, the GI50 (SF-268 CNS) was 1.17 µM and the TGI (SF-268 CNS) was 23.4 µM. For the same compound, the GI50 (COLO 205 colon) was 3.98 µM, the TGI (COLO 205 colon) was 23 µM and the GI50 (T-47D breast) was 4.76 µM. It also gave a TGI (T-47D breast) of 28.6 µM, a GI50 (RXF 393 renal) of 2.26 µM and a TGI (RXF 393 renal) of 14.7 µM. The GI50 (EKVX NSCLC) was 10.7 µM, the TGI (EKVX NSCLC) was 23.6 µM and the GI50 (MOLT-4 leukemia) was 0.0457 µM. The TGI (MOLT-4 leukemia) was 2.13 µM, the GI50 (SK-MEL-5 melanoma) was 1.39 µM and the TGI (SK-MEL-5 melanoma) was 5.35 µM. It also gave a GI50 (SN12C renal) of 10.6 µM, a TGI (SN12C renal) of 23.5 µM and a GI50 (SF-295 CNS) of 0.348 µM. For the same compound, the TGI (SF-295 CNS) was 15 µM, the GI50 (HOP-62 NSCLC) was 0.474 µM and the TGI (HOP-62 NSCLC) was 18.5 µM. For the same compound, the GI50 (PC-3 prostate) was 2.72 µM, the TGI (PC-3 prostate) was 21.9 µM and the GI50 (MALME-3M melanoma) was 1.54 µM. For the same compound, the TGI (MALME-3M melanoma) was 3.01 µM, the GI50 (M14 melanoma) was 3.42 µM and the TGI (M14 melanoma) was 18.1 µM. It also gave a GI50 (HL-60(TB) leukemia) of 3.77 µM, a TGI (HL-60(TB) leukemia) of 21.2 µM and a GI50 (DU-145 prostate) of 1.05 µM. For the same compound, the TGI (DU-145 prostate) was 16.6 µM, the GI50 (NCI-H226 lung) was 2.22 µM and the TGI (NCI-H226 lung) was 13.3 µM. It also gave a GI50 (SNB-75 CNS) of 0.825 µM, a TGI (SNB-75 CNS) of 12.4 µM and a GI50 (SK-OV-3 ovarian) of 2.04 µM. It also gave a TGI (SK-OV-3 ovarian) of 19.2 µM, a GI50 (UO-31 renal) of 5.86 µM and a TGI (UO-31 renal) of 20.4 µM. For the same compound, the GI50 (NCI-H460 lung) was 0.294 µM, the TGI (NCI-H460 lung) was 11.6 µM and the GI50 (A498 renal) was 12.2 µM. For the same compound, the TGI (A498 renal) was 27 µM, the GI50 (HOP-92 NSCLC) was 10.6 µM and the TGI (HOP-92 NSCLC) was 24.9 µM. It also gave a GI50 (786-0 renal) of 1.55 µM, a TGI (786-0 renal) of 2.98 µM and a GI50 (SR leukemia) of 0.359 µM. It also gave a TGI (SR leukemia) of 2.77 µM, a GI50 (MDA-MB-468 breast) of 0.492 µM and a TGI (MDA-MB-468 breast) of 6.08 µM. It also gave a GI50 (SK-MEL-2 melanoma) of 21.1 µM, a TGI (SK-MEL-2 melanoma) of 40.6 µM and a GI50 (HS 578T breast) of 11.8 µM. It also gave a TGI (HS 578T breast) of 33 µM, a GI50 (TK-10 renal) of 19.6 µM and a TGI (TK-10 renal) of 35.4 µM. The GI50 (MDA-MB-231 breast) was 1.42 µM, the TGI (MDA-MB-231 breast) was 2.81 µM and the GI50 (OVCAR-5 ovarian) was 13 µM. It also gave a TGI (OVCAR-5 ovarian) of 26.3 µM, a GI50 (KM12 colon) of 12.8 µM and a TGI (KM12 colon) of 28.6 µM. The GI50 (MDA-MB-435) was 2.16 µM, the TGI (MDA-MB-435) was 10.9 µM and the GI50 (CAKI-1 renal) was 2.43 µM. It also gave a TGI (CAKI-1 renal) of 19.2 µM, a GI50 (SNB-19 CNS) of 2 µM and a TGI (SNB-19 CNS) of 18.7 µM. It also gave a GI50 (HT29 colon) of 1.35 µM, a TGI (HT29 colon) of 22.7 µM and a GI50 (A549 NSCLC) of 2.52 µM. For the same compound, the TGI (A549 NSCLC) was 24.2 µM, the GI50 (U251 CNS) was 0.588 µM and the TGI (U251 CNS) was 19.8 µM. The GI50 (SW-620 colon) was 0.724 µM, the TGI (SW-620 colon) was 21.3 µM and the GI50 (OVCAR-4 ovarian) was 17.1 µM. The TGI (OVCAR-4 ovarian) was 39.9 µM, the GI50 (OVCAR-3 ovarian) was 14.3 µM and the TGI (OVCAR-3 ovarian) was 28.3 µM. For the same compound, the GI50 (CCRF-CEM leukemia) was 0.0437 µM, the TGI (CCRF-CEM leukemia) was 1.32 µM and the GI50 (HCC-2998 colon) was 9.38 µM. It also gave a TGI (HCC-2998 colon) of 21.5 µM, a GI50 (NCI-H522 lung) of 0.768 µM and a TGI (NCI-H522 lung) of 27.6 µM.
